Converted amounts (≈) assume the structure as drawn. Like-named read-outs stand apart in the source and are kept apart here. Positions of bridges follow the written chain, without caps; N, C: chain ends. Non-standard residues stand in square brackets, D forms with d. Residues, ends and D or L forms follow the SMILES beside them. *: point of attachment. Phenylacetyl(4-CF3) = O=C(Cc1ccc(C(F)(F)F)cc1)*; Benzoyl(3-Ph) = O=C(c1cccc(-c2ccccc2)c1)*; Benzoyl(4-Ph) = O=C(c1ccc(-c2ccccc2)cc1)*; Octanoyl(6-Me) = CCC(C)CCCCC(=O)*; X16 = O=C(c1cc(F)c(F)c(F)c1)*; Octanoyl = CCCCCCCC(=O)*; Dab = NCC[C@H](N)C(=O)O; Abu = CC[C@H](N)C(=O)O; Dap = NC[C@H](N)C(=O)O; Aib = CC(C)(N)C(=O)O
Legend:
Enterobacter cloacae = tested on: Enterobacter cloacae
How it was run: (§1)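 Broth microdilution MICs following CLSI standards in cation-adjusted Mueller-Hinton broth. Lipopeptides tested as TFA salts; polymyxin B sulphate served as control.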

Pseudomonas aeruginosa = tested on: Pseudomonas aeruginosa
How it was run: as §1

Acinetobacter baumannii = tested on: Acinetobacter baumannii
How it was run: as §1

Klebsiella pneumoniae = tested on: Klebsiella pneumoniae
How it was run: as §1

P. aeruginosa ATCC 27853 = assay: In vivo efficacy in mouse blood infection model (neutropenic Swiss mice); details: compound, free base 4 mg/kg intravenously 2 h after inoculation, blood at 4 h
How it was run: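 Neutropenic Swiss mice (cyclophosphamide 150 mg/kg day −4, 100 mg/kg day −1, i.p.) infected i.v. with early log-phase bacteria; 4 mg/kg free base i.v. given 2 h post-inoculation. Blood CFU by cardiac puncture 4 h post-dose; Δlog10 CFU/mL treated versus saline controls.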

[1] = Enterobacter cloacae FADDI-EC001, broth microdilution in CAMHB, TFA salt
[2] = Enterobacter cloacae FADDI-EC003, broth microdilution in CAMHB, TFA salt
[3] = Enterobacter cloacae FADDI-EC006, broth microdilution in CAMHB, TFA salt
[4] = Pseudomonas aeruginosa ATCC 27853, broth microdilution in CAMHB, TFA salt
[5] = Pseudomonas aeruginosa FADDI-PA022, broth microdilution in CAMHB, TFA salt
[6] = Pseudomonas aeruginosa FADDI-PA025, broth microdilution in CAMHB, TFA salt
[7] = Acinetobacter baumannii ATCC 17978, broth microdilution in CAMHB, TFA salt
[8] = Acinetobacter baumannii ATCC 19606, broth microdilution in CAMHB, TFA salt
[9] = Acinetobacter baumannii FADDI-AB034, broth microdilution in CAMHB, TFA salt

Compound	Minimum inhibitory concentration, Ec FADDI-EC001 (Enterobacter cloacae) [µg/mL]	Minimum inhibitory concentration, Ec FADDI-EC003 (Enterobacter cloacae) [µg/mL]	Minimum inhibitory concentration, Ec FADDI-EC006 (Enterobacter cloacae) [µg/mL]	MIC (Pseudomonas aeruginosa) [µg/mL]	Minimum inhibitory concentration, Pa ATCC 27853 (Pseudomonas aeruginosa) [µg/mL]	Minimum inhibitory concentration, Pa FADDI-PA022 (Pseudomonas aeruginosa) [µg/mL]	Minimum inhibitory concentration, Pa FADDI-PA025 (Pseudomonas aeruginosa) [µg/mL]	MIC (Acinetobacter baumannii) [µg/mL]	Minimum inhibitory concentration, Ab A ATCC 17978 (Acinetobacter baumannii) [µg/mL]	Minimum inhibitory concentration, Ab ATCC 19606 (Acinetobacter baumannii) [µg/mL]	Minimum inhibitory concentration, Ab FADDI-AB034 (Acinetobacter baumannii) [µg/mL]	MIC (Klebsiella pneumoniae) [µg/mL]	Δ log (Treated-Control at 4 h) (P. aeruginosa ATCC 27853) [log10 CFU/mL]	other results
CC[C@@H]1NC(=O)[C@@H](CC(C)C)NC(=O)[C@H](CCN)NC(=O)[C@@H](NC(=O)[C@H](CN)NC(=O)[C@@H](NC(=O)[C@H](CCN)NC(=O)Cc2ccc(C(F)(F)F)cc2)[C@@H](C)O)CCNC(=O)[C@H]([C@@H](C)O)NC(=O)[C@H](CCN)NC(=O)[C@H](CCN)NC1=O [Compound 127] ({Phenylacetyl(4-CF3)}-[Dab]T[Dap][Dab][Dab][dL][Abu][Dab][Dab]T; lactam 4-C)	<0.125	0.25 (≈ 0.213 µM)	0.5 (≈ 0.426 µM)	0.5 (≈ 0.426 µM)	0.5 (≈ 0.426 µM)	0.5 (≈ 0.426 µM)	16 (≈ 13.6 µM)	4 (≈ 3.41 µM)	1 (≈ 0.852 µM)	4 (≈ 3.41 µM)	0.5 (≈ 0.426 µM)	0.5 (≈ 0.426 µM)	−3.51	–
CCCCCCCC(=O)N[C@@H](CCN)C(=O)N[C@H](C(=O)N[C@@H](CN)C(=O)N[C@H]1CCNC(=O)[C@H]([C@@H](C)O)NC(=O)[C@H](CCN)NC(=O)[C@H](CCN)NC(=O)[C@H](CC)NC(=O)[C@@H](Cc2ccccc2)NC(=O)[C@H](CCN)NC1=O)[C@@H](C)O [Compound 130] (Octanoyl-[Dab]T[Dap][Dab][Dab][dF][Abu][Dab][Dab]T; lactam 4-C)	0.25 (≈ 0.218 µM)	0.25 (≈ 0.218 µM)	1 (≈ 0.872 µM)	0.5 (≈ 0.436 µM)	0.5 (≈ 0.436 µM)	2 (≈ 1.74 µM)	2 (≈ 1.74 µM)	0.25 (≈ 0.218 µM)	0.25 (≈ 0.218 µM)	0.25 (≈ 0.218 µM)	0.25 (≈ 0.218 µM)	0.5 (≈ 0.436 µM)	−3.66	–
CC[C@@H]1NC(=O)[C@@H](CC(C)C)NC(=O)[C@H](CCN)NC(=O)[C@@H](NC(=O)[C@H](CN)NC(=O)[C@@H](NC(=O)[C@H](CCN)NC(=O)c2cc(F)c(F)c(F)c2)[C@@H](C)O)CCNC(=O)[C@H]([C@@H](C)O)NC(=O)[C@H](CCN)NC(=O)[C@H](CCN)NC1=O [Compound 133] (X16-[Dab]T[Dap][Dab][Dab][dL][Abu][Dab][Dab]T; lactam 4-C; N-terminus assumed)	0.5 (≈ 0.437 µM)	0.25 (≈ 0.218 µM)	0.25 (≈ 0.218 µM)	0.5 (≈ 0.437 µM)	0.5 (≈ 0.437 µM)	0.5 (≈ 0.437 µM)	2 (≈ 1.75 µM)	2 (≈ 1.75 µM)	0.5 (≈ 0.437 µM)	2 (≈ 1.75 µM)	0.25 (≈ 0.218 µM)	0.25 (≈ 0.218 µM)	−3.23	–
CC[C@@H]1NC(=O)[C@@H](CC(C)C)NC(=O)[C@H](CCN)NC(=O)[C@@H](NC(=O)[C@H](CN)NC(=O)[C@@H](NC(=O)[C@H](CCN)NC(=O)c2cccc(-c3ccccc3)c2)[C@@H](C)O)CCNC(=O)[C@H]([C@@H](C)O)NC(=O)[C@H](CCN)NC(=O)[C@H](CCN)NC1=O [Compound 138] ({Benzoyl(3-Ph)}-[Dab]T[Dap][Dab][Dab][dL][Abu][Dab][Dab]T; lactam 4-C)	–	–	–	–	–	–	–	–	–	–	–	–	−2.98	Minimum inhibitory concentration (MIC), Ec FADDI-EC001 (Enterobacter cloacae; [1]): 0.5 µg/mL; Minimum inhibitory concentration (MIC), Ec FADDI-EC003 (Enterobacter cloacae; [2]): 1 µg/mL; Minimum inhibitory concentration (MIC), Ec FADDI-EC006 (Enterobacter cloacae; [3]): 0.5 µg/mL; MIC (Pseudomonas aeruginosa; P. aeruginosa ATCC 27853): 1 µg/mL (≈ 0.857 µM); Minimum inhibitory concentration (MIC), Pa ATCC 27853 (Pseudomonas aeruginosa; [4]): 1 µg/mL; Minimum inhibitory concentration (MIC), Pa FADDI-PA022 (Pseudomonas aeruginosa; [5]): 2 µg/mL; Minimum inhibitory concentration (MIC), Pa FADDI-PA025 (Pseudomonas aeruginosa; [6]): 1 µg/mL; MIC (Acinetobacter baumannii; A. baumannii ATCC 19606): 1 µg/mL (≈ 0.857 µM); Minimum inhibitory concentration (MIC), Ab ATCC 17978 (Acinetobacter baumannii; [7]): 0.5 µg/mL; Minimum inhibitory concentration (MIC), Ab ATCC 19606 (Acinetobacter baumannii; [8]): 1 µg/mL; Minimum inhibitory concentration (MIC), Ab FADDI-AB034 (Acinetobacter baumannii; [9]): 0.5 µg/mL; MIC (Klebsiella pneumoniae; K. pneumoniae FADDI-KP032): 0.5 µg/mL (≈ 0.428 µM)
CCC(C)CCCCC(=O)N[C@@H](CCN)C(=O)N[C@H](C(=O)N[C@@H](CN)C(=O)N[C@H]1CCNC(=O)[C@H]([C@@H](C)O)NC(=O)[C@H](CCN)NC(=O)[C@H](CCN)NC(=O)[C@H](CC)NC(=O)[C@@H](CC(C)C)NC(=O)[C@H](CCN)NC1=O)[C@@H](C)O (stereo partly drawn) [Compound 139] ({Octanoyl(6-Me)}-[Dab]T[Dap][Dab][Dab][dL][Abu][Dab][Dab]T; lactam 4-C)	–	–	–	1 (≈ 0.887 µM)	–	–	–	0.5 (≈ 0.443 µM)	–	–	–	<0.125	−3.19	Minimum inhibitory concentration (MIC), Ec FADDI-EC001 (Enterobacter cloacae): 0.5 µg/mL (≈ 0.443 µM); Minimum inhibitory concentration (MIC), Ec FADDI-EC003 (Enterobacter cloacae): 0.25 µg/mL (≈ 0.222 µM); Minimum inhibitory concentration (MIC), Ec FADDI-EC006 (Enterobacter cloacae): 1 µg/mL (≈ 0.887 µM); Minimum inhibitory concentration (MIC), Pa ATCC 27853 (Pseudomonas aeruginosa): 1 µg/mL (≈ 0.887 µM); Minimum inhibitory concentration (MIC), Pa FADDI-PA022 (Pseudomonas aeruginosa): 2 µg/mL (≈ 1.77 µM); Minimum inhibitory concentration (MIC), Pa FADDI-PA025 (Pseudomonas aeruginosa): 1 µg/mL (≈ 0.887 µM); Minimum inhibitory concentration (MIC), Ab ATCC 17978 (Acinetobacter baumannii): 0.25 µg/mL (≈ 0.222 µM); Minimum inhibitory concentration (MIC), Ab ATCC 19606 (Acinetobacter baumannii): 0.5 µg/mL (≈ 0.443 µM); Minimum inhibitory concentration (MIC), Ab FADDI-AB034 (Acinetobacter baumannii): 0.25 µg/mL (≈ 0.222 µM)
CCCCCCCC(=O)N[C@@H](CCN)C(=O)N[C@H](C(=O)N[C@@H](CN)C(=O)N[C@H]1CCNC(=O)[C@H]([C@@H](C)O)NC(=O)[C@H](CCN)NC(=O)[C@H](CCN)NC(=O)C(C)(C)NC(=O)[C@@H](Cc2ccccc2)NC(=O)[C@H](CCN)NC1=O)[C@@H](C)O [Compound 140] (Octanoyl-[Dab]T[Dap][Dab][Dab][dF][Aib][Dab][Dab]T; lactam 4-C)	–	–	–	1 (≈ 0.872 µM)	–	–	–	2 (≈ 1.74 µM)	–	–	–	0.25 (≈ 0.218 µM)	−3.27	Minimum inhibitory concentration (MIC), Ec FADDI-EC001 (Enterobacter cloacae): 0.5 µg/mL (≈ 0.436 µM); Minimum inhibitory concentration (MIC), Ec FADDI-EC003 (Enterobacter cloacae): 0.25 µg/mL (≈ 0.218 µM); Minimum inhibitory concentration (MIC), Ec FADDI-EC006 (Enterobacter cloacae): 1 µg/mL (≈ 0.872 µM); Minimum inhibitory concentration (MIC), Pa ATCC 27853 (Pseudomonas aeruginosa): 1 µg/mL (≈ 0.872 µM); Minimum inhibitory concentration (MIC), Pa FADDI-PA022 (Pseudomonas aeruginosa): 1 µg/mL (≈ 0.872 µM); Minimum inhibitory concentration (MIC), Pa FADDI-PA025 (Pseudomonas aeruginosa): 4 µg/mL (≈ 3.49 µM); Minimum inhibitory concentration (MIC), Ab ATCC 17978 (Acinetobacter baumannii): 0.5 µg/mL (≈ 0.436 µM); Minimum inhibitory concentration (MIC), Ab ATCC 19606 (Acinetobacter baumannii): 2 µg/mL (≈ 1.74 µM); Minimum inhibitory concentration (MIC), Ab FADDI-AB034 (Acinetobacter baumannii): 1 µg/mL (≈ 0.872 µM)
CC[C@@H]1NC(=O)[C@@H](CC(C)C)NC(=O)[C@H](CCN)NC(=O)[C@@H](NC(=O)[C@H](CN)NC(=O)[C@@H](NC(=O)[C@H](CCN)NC(=O)c2ccc(-c3ccccc3)cc2)[C@@H](C)O)CCNC(=O)[C@H]([C@@H](C)O)NC(=O)[C@H](CCN)NC(=O)[C@H](CCN)NC1=O [Compound 142] ({Benzoyl(4-Ph)}-[Dab]T[Dap][Dab][Dab][dL][Abu][Dab][Dab]T; lactam 4-C)	–	–	–	–	–	–	–	–	–	–	–	–	−3.89	Minimum inhibitory concentration (MIC), Ec FADDI-EC001 (Enterobacter cloacae; [1]): 0.25 µg/mL; Minimum inhibitory concentration (MIC), Ec FADDI-EC003 (Enterobacter cloacae; [2]): 1 µg/mL; Minimum inhibitory concentration (MIC), Ec FADDI-EC006 (Enterobacter cloacae; [3]): 0.5 µg/mL; MIC (Pseudomonas aeruginosa; P. aeruginosa ATCC 27853): 1 µg/mL (≈ 0.857 µM); Minimum inhibitory concentration (MIC), Pa ATCC 27853 (Pseudomonas aeruginosa; [4]): 1 µg/mL; Minimum inhibitory concentration (MIC), Pa FADDI-PA022 (Pseudomonas aeruginosa; [5]): 1 µg/mL; Minimum inhibitory concentration (MIC), Pa FADDI-PA025 (Pseudomonas aeruginosa; [6]): 1 µg/mL; MIC (Acinetobacter baumannii; A. baumannii ATCC 19606): 1 µg/mL (≈ 0.857 µM); Minimum inhibitory concentration (MIC), Ab ATCC 17978 (Acinetobacter baumannii; [7]): 0.5 µg/mL; Minimum inhibitory concentration (MIC), Ab ATCC 19606 (Acinetobacter baumannii; [8]): 1 µg/mL; Minimum inhibitory concentration (MIC), Ab FADDI-AB034 (Acinetobacter baumannii; [9]): 0.25 µg/mL; MIC (Klebsiella pneumoniae; K. pneumoniae FADDI-KP032): 0.25 µg/mL (≈ 0.214 µM)

— USRE48335E1, “Polymyxin derivatives as antimicrobial compounds” (priority 2014, dated 2020)
